The nature of test [1]: DPPH free radical scavenging assay. As to conditions: mean ± SD, n = 3. On the procedure:
(§1) The antioxidant activity of our samples was ascertained by evaluating their capacity to scavenge free radicals and reduce ferric ions. The DPPH and ABTS free radical scavenging assays were performed as per the method of Xu and his colleagues ([Xu et al., 2019]). Vit C, Trolox, and BHT were utilized as positive controls whereas pure methanol was for the blank control. The scavenging rate was calculated using the equation: Scavenging rate (%) =(A0 −AS)/A0× 100% With A 0 and As are ascribed to the absorbance value of the blank control, and the tested sample or positive control respectively. The results were expressed in IC50 values (n = 3, mean ± standard deviation).
For orientation: The DPPH test is a chemical assay of radical scavenging.

The target of test [2] is T1, COX-2 (Homo sapiens, UniProt P35354).
T1 sequence (P35354 18-604): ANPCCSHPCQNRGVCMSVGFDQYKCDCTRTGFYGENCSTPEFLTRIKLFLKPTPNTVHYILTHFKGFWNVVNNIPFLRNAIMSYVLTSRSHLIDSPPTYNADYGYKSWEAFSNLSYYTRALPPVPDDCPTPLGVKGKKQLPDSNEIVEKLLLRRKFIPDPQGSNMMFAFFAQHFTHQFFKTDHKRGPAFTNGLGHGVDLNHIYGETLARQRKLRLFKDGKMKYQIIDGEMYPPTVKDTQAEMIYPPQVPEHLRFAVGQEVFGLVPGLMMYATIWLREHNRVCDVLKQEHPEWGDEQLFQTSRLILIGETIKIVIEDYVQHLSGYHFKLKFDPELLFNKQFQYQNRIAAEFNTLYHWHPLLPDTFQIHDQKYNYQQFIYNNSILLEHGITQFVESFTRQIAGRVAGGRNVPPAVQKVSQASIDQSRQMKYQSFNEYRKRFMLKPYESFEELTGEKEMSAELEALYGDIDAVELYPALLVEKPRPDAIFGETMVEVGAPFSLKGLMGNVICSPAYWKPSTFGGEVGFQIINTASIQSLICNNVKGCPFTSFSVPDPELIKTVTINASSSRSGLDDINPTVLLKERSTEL
In words: Bio-affinity ultrafiltration UPLC/QTOF-MS with COX-2. As to conditions: SB = Aactive/Ainactive, ligands from EHNB.
Procedure: (§2) Concisely, 100 µL volume of EHNB sample was incubated with 40 µL COX-2 (8 units), or 100 µL α-Glu (6 units) active enzymes. Afterward, the mix solutions were incubated for 45 min and subsequently transferred to a centrifugal ultrafiltration vial 10 kDa cut-off filter membrane. They were initially centrifuged at 10,000 rpm for 10 min (25°C) to withdraw the extra solution followed by three successive centrifugations with 200 µL phosphate-buffered saline (PBS) to wash away the non-binding compounds. Finally, the fixed ligand candidates were fished out from the complex throughout enzyme denaturation with 200 μL of 70% (v/v) aqueous methanol before centrifugation (10,000 rpm, 10 min). The filtrates from three denaturation processes were gathered and dried on nitrogen blowing before reconstitution in 50 μL of aqueous methanol (50%, v/v) for further analytical analysis.
(§3) In this study, the high throughput ligand screening bio-affinity ultrafiltration UPLC/QTOF-MS targeting α-Glu and COX-2 has been utilized to fish out these key hypoglycemic and anti-inflammatory chemicals. […] Based on the comparison of peak areas of the chromatograms obtained from the sample incubated with the active enzyme and that of the denatured group, the relative binding of each candidate was assessed via the specific binding value calculated from the equation: Specific binding (SB)=Aactive/Ainactive

The target in a further test is α-glucosidase (α-Glu) (Saccharomyces cerevisiae, UniProt P53341). In words: Bio-affinity ultrafiltration UPLC/QTOF-MS with α-Glu. The settings on record: SB = Aactive/Ainactive, ligands from EHNB.
α-glucosidase (α-Glu), sequence (P53341 whole entry): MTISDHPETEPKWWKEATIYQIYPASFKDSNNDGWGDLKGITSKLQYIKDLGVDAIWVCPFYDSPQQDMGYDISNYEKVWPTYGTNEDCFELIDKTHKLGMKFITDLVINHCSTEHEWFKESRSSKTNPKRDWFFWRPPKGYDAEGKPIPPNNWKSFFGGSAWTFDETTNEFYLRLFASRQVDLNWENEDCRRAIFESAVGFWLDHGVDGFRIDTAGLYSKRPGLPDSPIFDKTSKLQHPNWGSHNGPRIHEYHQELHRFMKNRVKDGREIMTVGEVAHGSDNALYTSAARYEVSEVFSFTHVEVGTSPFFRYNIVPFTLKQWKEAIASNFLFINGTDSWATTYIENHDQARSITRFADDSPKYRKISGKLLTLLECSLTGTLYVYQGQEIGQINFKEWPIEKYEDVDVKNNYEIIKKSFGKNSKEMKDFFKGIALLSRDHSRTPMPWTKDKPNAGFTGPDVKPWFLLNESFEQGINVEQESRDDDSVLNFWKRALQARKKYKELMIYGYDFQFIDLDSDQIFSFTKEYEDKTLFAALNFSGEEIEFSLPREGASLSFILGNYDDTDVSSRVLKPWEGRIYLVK
For test [3], the target named is T1, COX-2. Put plainly: In vitro COX-2 inhibition assay (inhibitor screening kit). It counts as biochemical. Further details: purchased Beyotime Biotechnology (Shanghai, China) S0168. On the procedure: In brief, the working solutions including COX-2 cofactor, COX-2 enzyme solution, COX-2 substrate, and COX-2 probe were first prepared in accordance with the supplier manual, which were subsequently diluted ten times with the buffer kit assay. Thereafter, 150 µL Tris-HCl (pH 7.8), 10 µL of COX-2 cofactor, and 10 µL of work solution excluding the blank group were mixed in a 96 well black plate. […] After a 10 min incubation at 37°C, the reaction was initiated with 10 µL of COX-2 probe and 10 µL of COX-2 substrate. Finally, their relative fluorescence unit (RFU) was read from an excitation wavelength of 560 nm and an emission wavelength of 590 nm, after 20 min of incubation (37°C).
With RFU 100% enzyme , RFU sample , and RFU blank control represent the relative fluorescence value of the intact enzyme, samples and blank control respectively. The experiment was conducted in triplicates and the IC50 values were expressed into mean ± standard deviation.

Test [4] in a line: ABTS free radical scavenging assay. As to conditions: mean ± SD, n = 3. On the procedure:
as §1

Test [5] in a line: Ferric reducing antioxidant power (FRAP) assay. The settings on record: mean ± SD, n = 3. As for the experimental part: The ferric […] behavior using the ferric reducing antioxidant power (FRAP) assay was conducted based on a priorly reported method by our research group ([Rakotondrabe et al., 2022]).

Experimental findings from article PMC9465062, “Exploring potential antidiabetic and anti-inflammatory flavonoids from Euphorbia humifusa with an integrated strategy” (Frontiers in Pharmacology, 2022) are described below.

Several values for one entry are separate records, joined by “and”; a condition that tells them apart may be missing. Equal entries are not always repeated. Where two headings read alike, the source gives them in different places. Marks after values point to notes of the source that are not given here.

Procedure for α-glucosidase (α-Glu): as §2, §3

With `Cc1cc(C(C)(C)C)c(O)c(C(C)(C)C)c1` [BHT, butylated hydroxytoluene], the “IC50 DPPH” value in test [1] was 10.82 ± 0.37^c µg/ml.
`O=c1oc2c(O)c(O)cc3c(=O)oc4c(O)c(O)cc1c4c23` [Compound 4, Ellagic acid]: the “COX-2 SB (specific binding)” value at COX-2 [2] stood at 1.05. Moreover, the “α-Glu SB (specific binding)” value on α-glucosidase (α-Glu) amounted to 1.28.
As to `O=c1c(O[C@@H]2O[C@H](CO)[C@@H](O)[C@H](O)[C@H]2O)c(-c2ccc(O)cc2)oc2cc(O)cc(O)c12` [Compound 6, Astragalin (Kaempferol-3-O-glucoside)], at COX-2 [2], the “COX-2 SB (specific binding)” value was 1.36. Besides, the IC50 on COX-2 [3] (validation with pure compounds, Figure 6B, read-out: COX-2 IC50) came to 49.1 ± 1.49 µM. Further, the “α-Glu SB (specific binding)” value on α-glucosidase (α-Glu) is reported as 1.32.
On to `O=c1cc(-c2ccc(O)cc2)oc2c([C@@H]3O[C@H](CO)[C@@H](O)[C@H](O)[C@H]3O)c(O)cc(O)c12` [Compound 8, Vitexin (Apigenin 8-C-glucoside)], for which, at COX-2 [2], the “COX-2 SB (specific binding)” value is reported as 1.32. Besides, on COX-2 [3], the IC50 was determined as 27.9 ± 1.74 µM. Moreover, the “α-Glu SB (specific binding)” value on α-glucosidase (α-Glu) is 1.26.
In the case of `Cc1c(C)c2c(c(C)c1O)CCC(C)(C(=O)O)O2` (centres unmarked) [Trolox], the “IC50 ABTS” value in test [4] is 6.15 ± 0.98^d µg/ml. The FRAP in test [5] was 1.79 ± 0.01 mM Fe^2+/g and 1.79 ± 0.01^b mM Fe^2+/g.
Take `O=C1O[C@H]([C@@H](O)CO)C(O)=C1O` [Vit C, ascorbic acid]: in test [4], the “IC50 ABTS” value is listed as 4.18 ± 0.06^e µg/ml. Besides, the FRAP in test [5] was 2.04 ± 0.01 mM Fe^2+/g and 2.04 ± 0.01^a mM Fe^2+/g. For the same compound, the “IC50 DPPH” value in test [1] is reported as 3.35 ± 0.12^f µg/ml.

As a reminder, the IC50 is the concentration needed to halve the response being measured.
